This assay addresses T1, MET1MTase (Arabidopsis thaliana, UniProt P34881).
T1 construct: gene DMT1; residues 621-1534 (lacks RFTS1-2; acidic linker, BAH1-2, MTase), GST tag cleaved by HRV3C, E. coli Rosetta2 (DE3)
T1 sequence (P34881 621-1534): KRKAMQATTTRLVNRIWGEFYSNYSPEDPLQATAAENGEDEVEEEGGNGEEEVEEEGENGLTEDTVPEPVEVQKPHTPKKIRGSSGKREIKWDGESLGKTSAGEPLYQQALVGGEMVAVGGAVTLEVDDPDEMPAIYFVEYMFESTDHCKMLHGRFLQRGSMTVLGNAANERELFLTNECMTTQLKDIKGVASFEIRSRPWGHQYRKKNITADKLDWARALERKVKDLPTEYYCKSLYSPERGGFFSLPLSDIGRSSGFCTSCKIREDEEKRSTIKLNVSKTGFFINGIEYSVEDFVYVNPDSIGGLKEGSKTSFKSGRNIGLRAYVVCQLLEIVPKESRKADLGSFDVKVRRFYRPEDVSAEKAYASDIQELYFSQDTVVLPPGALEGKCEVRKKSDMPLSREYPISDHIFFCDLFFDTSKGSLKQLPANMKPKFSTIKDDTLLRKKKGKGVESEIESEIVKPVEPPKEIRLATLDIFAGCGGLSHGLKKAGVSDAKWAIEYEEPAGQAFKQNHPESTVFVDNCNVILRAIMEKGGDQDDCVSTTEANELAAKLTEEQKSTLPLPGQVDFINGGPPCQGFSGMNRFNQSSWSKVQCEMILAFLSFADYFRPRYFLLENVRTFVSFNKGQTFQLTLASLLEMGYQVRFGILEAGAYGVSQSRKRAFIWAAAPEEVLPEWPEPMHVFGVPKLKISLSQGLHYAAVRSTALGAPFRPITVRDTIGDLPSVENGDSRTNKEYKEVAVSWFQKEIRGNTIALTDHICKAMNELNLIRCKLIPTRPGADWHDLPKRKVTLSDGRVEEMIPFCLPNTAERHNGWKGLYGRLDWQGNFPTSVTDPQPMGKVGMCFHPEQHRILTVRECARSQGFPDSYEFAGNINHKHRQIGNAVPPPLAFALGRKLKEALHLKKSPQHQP
In words: cryo-EM structure. To be noted: ternary complex with 12 bp hemimethylated DNA (5-fluorocytosine covalently bound to Cys1198); formed from added SAM; 2.74 Å. It is filed as binding.

SMILES strings stand for the structures.

Turning to `Nc1ncnc2c1ncn2[C@@H]1O[C@H](CSCC[C@H](N)C(=O)O)[C@@H](O)[C@H]1O` [SAH, S-adenosyl homocysteine], the cryo-EM structure result is “catalytic core containing S-adenosyl homocysteine (SAH, a methyl donor cofactor product) binding site”.

(Values after paper PMC12474915 (Nature Communications, 2025).)
